Experimental findings from ChEMBL document CHEMBL1158138, “Cucurbitane triterpenes from the fruiting bodies and cultivated mycelia of Leucopaxillus gentianeus” (J Nat Prod, 2006) are described below.

For experiment [1], the target named is T1, DNA topoisomerase 1 (Homo sapiens) (UniProt P11387).
T1 sequence (whole entry): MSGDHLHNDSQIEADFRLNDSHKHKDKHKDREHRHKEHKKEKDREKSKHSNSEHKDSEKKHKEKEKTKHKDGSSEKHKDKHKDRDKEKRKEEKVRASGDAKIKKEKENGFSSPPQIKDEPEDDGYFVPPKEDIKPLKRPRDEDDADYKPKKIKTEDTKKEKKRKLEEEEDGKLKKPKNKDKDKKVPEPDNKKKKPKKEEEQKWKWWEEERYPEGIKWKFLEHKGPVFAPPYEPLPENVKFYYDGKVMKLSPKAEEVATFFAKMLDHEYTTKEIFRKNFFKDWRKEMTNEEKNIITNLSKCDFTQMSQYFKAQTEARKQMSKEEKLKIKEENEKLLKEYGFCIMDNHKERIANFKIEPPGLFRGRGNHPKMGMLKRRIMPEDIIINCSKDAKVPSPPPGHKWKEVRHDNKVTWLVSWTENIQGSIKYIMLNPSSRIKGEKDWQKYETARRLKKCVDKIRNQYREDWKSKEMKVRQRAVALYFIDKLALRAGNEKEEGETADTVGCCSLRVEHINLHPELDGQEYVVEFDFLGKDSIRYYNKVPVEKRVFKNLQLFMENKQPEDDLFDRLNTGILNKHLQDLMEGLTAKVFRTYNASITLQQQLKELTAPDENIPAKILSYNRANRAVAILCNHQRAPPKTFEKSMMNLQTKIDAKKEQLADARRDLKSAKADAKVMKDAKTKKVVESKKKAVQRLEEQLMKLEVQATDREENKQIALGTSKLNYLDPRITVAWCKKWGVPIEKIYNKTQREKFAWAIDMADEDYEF
As to the kind of experiment: Inhibition of topoisomerase 1-mediated SV40 DNA cleavage at 1 to 50 uM by gel electrophoresis.

The test system of experiment [2] is NCI-H460. Description: Antiproliferative activity against human NCI-H460 cells after 72 hrs. The note with it: NCI-H460, 72 h. The class given is functional, cell-based.

≈ marks a conversion by molar mass, not a printed value. Calls of active or inactive are those of the source. The rule behind the calls is not given here.

By IC50 is commonly meant the concentration needed to halve the response being measured. Low values mean greater potency in that assay, high ones weaker potency in that assay.

On to `CCc1c2c(nc3ccc(O)cc13)-c1cc3c(c(=O)n1C2)COC(=O)[C@]3(O)CC`, for which the outcome in experiment [1] was Active.

As to `CC(=O)OC(C)(C)/C=C/C(=O)[C@@](C)(O)[C@H]1CC[C@@]2(C)[C@@H]3CC=C4[C@@H](C[C@H](O)C(=O)C4(C)C)[C@]3(C)C(=O)C[C@]12C` [16-DEOXYCUCURBITACIN B], in experiment [2], the half-maximal inhibitory concentration (IC50) amounted to 0.06 µg/mL (≈ 0.111 µM). The same measure, in the same setting: the figure for `CC(=O)O[C@H](C[C@@H](OC(C)=O)C(C)(C)O)[C@@H](C)[C@H]1[C@H](O)C[C@@]2(C)[C@@H]3CC=C4[C@@H](CCC(=O)C4(C)C)[C@]3(C)C(=O)C[C@]12C` [18-DEOXYLEUCOPAXILLONE A] is 10.6 µg/mL (≈ 18 µM).

Regarding `CC(=O)OC(C)(C)/C=C/C(=O)[C@](C)(O)[C@H]1[C@H](O)C[C@@]2(C)[C@@H]3CC=C4[C@H](C[C@H](O)C(=O)C4(C)C)[C@]3(C)C(=O)C[C@]12C` [CUCURBITACIN B], the IC50 in experiment [2] turned out to be 0.011 µg/mL (≈ 0.0197 µM). The outcome in experiment [1] was Active.

The compound `CC(C)(O)/C=C/C(=O)[C@](C)(O)[C@H]1[C@H](O)C[C@@]2(C)[C@@H]3CC=C4[C@@H](C[C@H](O)C(=O)C4(C)C)[C@]3(C)C(=O)C[C@]12C` [CUCURBITACIN D] registered a concentration for half-maximal inhibition (IC50) in experiment [2] of 0.12 µg/mL (≈ 0.232 µM). For `CC(=O)O[C@H](C[C@@H](OC(C)=O)C(C)(C)O)[C@@H](C)[C@H]1CC[C@@]2(C)[C@@H]3CC=C4[C@@H](CCC(=O)C4(C)C)[C@]3(C)CC[C@]12CO` [LEUCOPAXILLONE A], in experiment [2], the IC50 worked out at 3.5 µg/mL (≈ 6.09 µM). On the same count and under the same terms, next, `CC(=O)O[C@H](C[C@@H](OC(C)=O)C(C)(C)O)[C@@H](C)[C@H]1CC[C@@]2(C)[C@@H]3CC=C4[C@@H](CCC(=O)C4(C)C)[C@]3(C)[C@]3(O)C[C@]12CO3` [LEUCOPAXILLONE B]: 0.3 µg/mL (≈ 0.51 µM); `CC[C@@]1(O)C(=O)OCc2c1cc1n(c2=O)Cc2cc3c(CN(C)C)c(O)ccc3nc2-1` [TOPOTECAN]: 0.008 µg/mL (≈ 0.019 µM).
